Data: PubChem BioAssay AID2838 (The Scripps Research Institute Molecular Screening Center, 2010)
Activity calls are given as the source filed them.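 The calls were made as follows: active = IC50 at or below 10 µM; inactive = IC50 above 10 µM.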

Molecular target: tRNA 2'-phosphotransferase Tpt1 (Candida albicans SC5314)
Experiment: Candida albicans TPT1 inhibitors, late-stage follow-up, biochemical, fluorescence polarization, dose response (AID 2838)
Conditions: recombinant caTpt1, RNase T1-coupled fluorescence polarization

IC50 | Structure (SMILES)
inactive | NC(=O)c1cc[n+](CC2=C(C(=O)O)N3C(=O)[C@@H](NC(=O)C(c4ccccc4)S(=O)(=O)O)[C@H]3SC2)cc1 (some centres undefined)
> 49.8 µM (inactive) | OC(Cn1cncn1)(Cn1cncn1)c1ccc(F)cc1F
> 49.8 µM (inactive) | CC1=C(C#N)C(=O)N(C2CCS(=O)(=O)C2)C(=O)/C1=C\c1ccco1 (centres undefined)
> 49.8 µM (inactive) | NS(=O)(=O)c1cc(C(=O)NC2CCSc3ccccc32)ccc1Cl (centres undefined)
